# Experiments:
# [1] = test system: NT2N cells; experiment: Indirect immunofluorescence microscopy of cell surface distribution of SFV-expressed APP695 in NT2N cells; type: cell-based, human; details: SFV-infected NT2N cells, 20 μg/ml BFA after infection
# Experimental: Since BFA treatment results in retention of all newly synthesized proteins in the ER, additional experiments were conducted to confirm that the generation of Aβ42 in the ER was not due to retention of newly synthesized proteases not being delivered to their proper site of action. Accordingly, an ER-retention signal was placed in APP695 in which the third and fourth amino acids from the C-terminus were changed to lysine (APP695ΔKK) . This lysine motif is sufficient to retain heterologous transmembrane proteins in the ER and intermediate compartment. In these experiments, recombinant Semliki Forest virus (SFV) vectors to express APP695ΔKK. Previous studies have shown that despite high levels of SFV-mediated APP expression, SFV infected NT2N cells display a high degree of fidelity in processing APP (Wertkin et al. 1993 Proc. Natl. Acad. Sci. USA 90:9513-9517; Turner et al. 1996 J. Biol. Chem. 271:8966-8970). […] To determine if APP695ΔKK was in fact retained in the ER, indirect immunofluorescence microscopy was used to monitor both intracellular and cell surface distribution of SFV-expressed APP695 and APP695ΔKK. While intracellular levels of APP695 and APP695ΔKK appeared similar, only APP695 was expressed on the cell surface. […]
# [2] = test system: human kidney 293 cells stably transfected with APPsw cDNA; details: non-neuronal 293 cells expressing APPsw; cited from earlier work
# [3] = test system: NT2N neurons; experiment: Brefeldin A treatment of [35S]methionine-labeled NT2N neurons, immunoprecipitation of APP fragments from cell lysates and media; type: cell-based, human
# Source text: The detection of APPβ in the cell lysate of NT2N neurons, together with the presence of Aβ40 and Aβ42 (Turner et al. 1996 J. Biol. Chem. 271:8966-8970), establish that an intracellular β-secretase pathway(s) exists in these cells. At present, no other cell line has been reported to produce detectable levels of intracellular APPβ from endogenous or over-expressed wild-type APP (Seubert et al. 1993 Nature 361:260-263; Haass et al. 1995a Nature Med. 1:1291-1296; Thinakaran et al. 1996b J. Biol. Chem. 271:9390-9397). […] In the absence of BFA, APPFL, APPβ, and Aβ were recovered from the cell lysates while APPα, APPβ, and Aβ were detected in the media of NT2N neurons.
# Cultured NT2N neurons were starved in methionine-free DMEM HG (Life Technologies, Inc., Gaithersburg, Md.) for 30 minutes prior to incubation in fresh methionine-free DMEM HG containing 0.5 mCi/ml of [^35S]methionine (sp act. 1000 Ci/mmol; NEN-DuPont, Boston, Mass.). […] Quantitation of bands in the autoradiogram was performed using the ImageQuant software (Molecular Dynamics Inc. Sunnyvale, Calif.) in accordance with procedures described by Turner et al. 1996 J. Biol. Chem. 271:8966-8970. Radiolabeled proteins in SDS-PAGE gels and nitrocellulose replicas were also analyzed by standard autoradiographic methods. […]
# [4] = test system: NT2N neurons; experiment: ELISA distinguishing Aβ40 and Aβ42 in cell lysates and medium of BFA-treated NT2N neurons; type: cell-based, human
# Experimental: Cell lysates and medium from the cells were then analyzed using an ELISA system which quantitatively distinguishes between Aβ40 and Aβ42 to ascertain whether alteration of Aβ levels by BFA was the result of altered levels of Aβ40, Aβ42 or both. Suzuki et al. 1994 Science 264:1336-1340. Results from the ELISA correlated with the immunoprecipitation data in that BFA abolished secretion of Aβ into the medium and reduced overall expression of intracellular Aβ by approximately 60%. However, it was the complete loss of […] that accounted for this decrease. […] Thus, γ-secretases appear to be active in the endoplasmic reticulum, but only to yield Aβ42. Further, it is believed that Aβ42 is preferentially generated in the ER while Aβ40, is generated in more distal components of the exocytic pathway.
# NT2N neurons were pretreated with 20 Ag/ml of BFA for 1 hour before the addition of 0.5 mCi/ml of [^35S] methionine to the cultures for 16 hours in the absence or presence of BFA. The cell lysates and media were processed for immunoprecipitation as described in Example 3. For deglycosylation of APPG, the immunoprecipitates containing APPβ were washed twice in sodium phosphate buffer (20 mmol/l, pH 7.2) and boiled for 2 minutes in 10 μl of 1% SDS. The samples were then boiled for an additional 2 minutes after adding 90 μl of the sodium phosphate buffer with sodium azide (10 mmol/l), EDTA (50 mmol/l), and n-Octylglucoside (0.5% w/v). After this denaturation step, deglycosylation was initiated by the addition of 2 mU Neuraminidase (Arthrobacter; Boehringer Mannheim, Indianapolis, Ind.), 2.5 mU 0-Glycosidase (Boehringer Mannheim, Indianapolis, Ind.), and 0.4 U N-Glycosidase F (Boehringer Mannheim, Indianapolis, IN). The samples were then incubated at 37° C. for 18 hours and deglycosylated APPβ was run on 7.5% SDS-PAGE gels as described in Example 2.
smiles,measurement,setting,value
"C[C@H]1CCC/C=C/[C@@H]2C[C@H](O)C[C@H]2[C@H](O)/C=C/C(=O)O1 [BFA, Brefeldin A]",surface expression of APP695,[1],blocked
same,APPβsw and Aβ production,[2],completely eliminates
same,"secretion of APPα, APPβ, and Aβ into the medium","[3]; 20 μg/ml BFA, immunoprecipitation of media",completely abolished
same,electrophoretic mobility of APPβ from BFA-treated versus untreated cells,[3]; SDS-PAGE of immunoprecipitated APPβ,migrated more quickly
same,intracellular Aβ40,[4]; cell lysate,complete loss
same,intracellular Aβ42,[4]; cell lysate,largely unaffected
same,reduction of overall expression of intracellular Aβ,[4]; cell lysate,approximately 60%
same,secretion of Aβ into the medium,[4]; medium,abolished

# Source: patent publication US20030186315A1, “ADMINISTRATION OF AN AGENT WHICH DECREASES PROCESSING OF AMYLOID PRECURSOR PROTEIN” (priority 1999, published 2003)
